Measured values: article PMC4742234, “Screening of Drug Metabolizing Enzymes for the Ginsenoside Compound K In Vitro: An Efficient Anti-Cancer Substance Originating from Panax Ginseng” (PLoS ONE, 2016)

Target: CYP2C9 (Homo sapiens, UniProt P11712)
Assay: Inhibition of CYP2C9 (tolbutamide 4-hydroxylation) by CK in HLMs
Type: in vitro ADME
Parameters: tissue Cypex Ltd. (U.K.); host or cells: pooled human liver microsomes
Protocol: The method was conducted according to our previous study with some modifications. The CYP isoform-specific probe reactions used were phenacetin O-deethylation (for CYP1A2), coumarin 7-hydroxylation (for CYP2A6), tolbutamide 4-hydroxylation (for CYP2C9), metoprolol α-hydroxylation (for CYP2D6), chlorzoxazone 6-hydroxylation (for CYP2E1),S-Mephenytoin 4-hydroxylation (for CYP2C19), and midazolam 1-hydroxylation (for CYP3A4). The kinetic study of CK was conducted with HLMs. A 0.2 mL incubation mixture that consisted of CK (as a substrate), the HLMs (0.5 mg/mL) or CYP isoforms (10 pmol), and 0.1 M sodium phosphate buffer (pH 7.4) was pre-warmed for 5 min at 37°C. The reaction was initiated by the addition of 1 mg/mL triphosphopyridine nucleotide (NADPH). All the reagents were dissolved in methanol, and the final solvent concentration in all incubations (including the controls) was 1%. The final incubations were performed in a shaking water bath (37°C) for 30 min. The reactions were stopped by adding 0.2 mL ice-cold acetonitrile, which contains irbesartan (114.9 ng/mL) as the internal standard. The samples were vortexed for 5 min. After centrifugation (12000×g for 10 min), the supernatants were transferred, and aliquots of 20 μL were injected into the HPLC-MS/MS system for analysis.
CK (10–100 μM) and a single CYP isoform-specific substrate (with a concentration similar to its corresponding Kmvalue) were used to determine the inhibitory effect of CK on specific CYP isoforms as described in detail previously. Substrates including phenacetin, coumarin, tolbutamide, metoprolol, chlorzoxazone, S-Mephenytoin, and midazolam were used at concentrations of 10, 5, 100, 7.5, 40, 100, and 5 μM, respectively. All incubation conditions were the same as mentioned above. The inhibitory effects on the CYP isoforms were investigated individually by incubating the HLMs in the absence or presence of CK. The incubation solution with the solvent that was used to dissolve CK was regarded as the negative control, and the solutions containing the specific inhibitors mentioned above were considered the positive controls.
Therefore, Dixon plots for the inhibition of CYP2C9 and CYP3A4 were determined by incubating the substrate probe at multiple concentrations with or without the test inhibitor with the HLMs and cofactors. The inhibition data obtained from the pilot experiments were used as a guide to generate the appropriate probe substrate and test inhibitor concentrations for the determination of the Ki values for each CYP isoform. The isoform-specific probe substrate concentrations used were 25–200 μM tolbutamide for CYP2C9 and 5–50 μM midazolam for CYP3A4. The CK concentrations used were 10–100 μM.
Therefore, we used S/V versus [I] plots to determine the Ki’ values for the inhibition of CYP2C9 and CYP3A4. When Ki>Ki’, the intersection was above the [I] axis in the plot of S/V against [I] and below it in the Dixon plot; the opposite was true if Ki<Ki’. In the special case where Ki = Ki’ (simple non-competitive inhibition), the intersections occurred on the [I] axis in both plots. The asymptotic cases of competitive and uncompetitive inhibition can be generated by inserting the conditions Ki’ to ∞ for competitive inhibition, or Ki to ∞ for uncompetitive inhibition.
As described in detail previously, to determine the major enzymes responsible for the CK metabolism in HLMs, the metabolic clearance rate of the incubation solution without any specific inhibitor for CK was considered as 100%. The effects of the specific inhibitors on the metabolic clearance rate of CK were evaluated with SPSS one-way analysis of variance (SPSS Inc., Chicago, IL, USA). P<0.05 was considered significant in all cases. The apparent kinetic parameters of CK (Km and Vmax) were determined by fitting the Michaelis–Menten equation using the GraphPad Prism Enzyme Kinetic 5 Demo software (GraphPad Co. Ltd, San Diego, CA, USA). […]

[1] = CYP2C9 in HLMs, sulfaphenazole values ref 15, 16

Sequence of CYP2C9 (P11712 whole entry): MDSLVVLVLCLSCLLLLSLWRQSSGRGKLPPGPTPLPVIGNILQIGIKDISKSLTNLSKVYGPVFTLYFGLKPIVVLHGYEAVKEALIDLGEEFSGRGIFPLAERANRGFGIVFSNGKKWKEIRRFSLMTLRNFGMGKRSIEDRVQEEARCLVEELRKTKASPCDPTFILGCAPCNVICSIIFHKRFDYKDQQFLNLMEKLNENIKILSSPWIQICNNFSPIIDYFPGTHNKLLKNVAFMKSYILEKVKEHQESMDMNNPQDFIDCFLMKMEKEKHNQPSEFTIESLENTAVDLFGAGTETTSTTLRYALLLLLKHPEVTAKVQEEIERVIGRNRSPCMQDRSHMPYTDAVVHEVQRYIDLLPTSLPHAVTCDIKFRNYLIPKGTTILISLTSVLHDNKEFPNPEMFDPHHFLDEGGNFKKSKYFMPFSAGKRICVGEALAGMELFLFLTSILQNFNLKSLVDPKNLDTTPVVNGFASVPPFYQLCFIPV

Compound: CC(C)=CCC[C@](C)(OC1O[C@H](CO)[C@@H](O)[C@H](O)[C@H]1O)[C@H]1CC[C@]2(C)[C@@H]1[C@H](O)C[C@@H]1[C@@]3(C)CC[C@H](O)C(C)(C)[C@@H]3CC[C@]12C (stereo partly drawn) [CK, 20-O-β-(D-glucopyranosyl)-20(S)-protopanaxadiol]
- IC50 of CK higher than that of sulfaphenazole [1]: 11-53 fold
- Ki of CK higher than that of sulfaphenazole [1]: 49 fold
- type of inhibition of CYP2C9 (HLMs, Dixon and S/V versus [I] plots): mixed type
- IC50 (HLMs, tolbutamide 4-hydroxylation, tolbutamide 100 μM, CK 10–100 μM): 16 µM
- Ki (HLMs, tolbutamide 25–200 μM, secondary plot of Lineweaver–Burk slopes): 14.9 µM
- inhibitor potency class for CYP2C9 (classified by IC50 according to Kong et al): moderate (moderate, if IC50 20–100 μg/mL or 10–50 μM)
